Settings: Liquid; for vapor or sublimation pressure: Closed cell (Static) method

FC(F)Cl [chlorodifluoromethane]
Settings	mass density [kg/m3]	vapor or sublimation pressure [kPa]
237.03 K	1396.88	125.48
242.05 K	1380.58	156.52
248.23 K	1361.7	202.41
250.79 K	1352.02	223.86
257.12 K	1333.18	285.6
262.27 K	1317.65	343.76
267.03 K	1302.17	405.65
272.37 K	1283.62	485.71
276.67 K	1268.86	558.12
283.21 K	1244.97	682.58
287.52 K	1231.04	774.37
294.06 K	1206.17	932.29
298.34 K	1188.92	1047.7
303.44 K	1168.12	1201.9
306.98 K	1156.73	1316.4

CCF [fluoroethane]
Settings	mass density [kg/m3]	vapor or sublimation pressure [kPa]
231.49 K	822.41	83.13
234.21 K	817.05	94.43
236.99 K	812.28	107.29
239.38 K	807.75	119.32
242.26 K	802.85	135.31
244.45 K	798.89	148.5
247.17 K	794.45	166.36
249.55 K	790.12	183.2
252.04 K	784.97	202.06
254.66 K	781.18	223.94
256.86 K	777.42	243.51
259.79 K	772.38	271.62
261.53 K	769.17	289.32
264.92 K	762.96	326.52
267.46 K	758.21	356.63
270.02 K	753.26	389.01
272.57 K	748.47	423.54
275.14 K	743.66	460.69
277.69 K	738.45	499.68
280.25 K	734.48	542.23
282.93 K	728.08	587.98
285.36 K	724.27	633.63
288.87 K	715.99	701.87
290.5 K	713.52	736.6
293.49 K	706.47	801.35
296.62 K	699.98	874.83
298.35 K	696.18	917.13
301.4 K	689.76	996.4
303.42 K	685.09	1051
305.56 K	680.24	1111.4
308.36 K	673.98	1195.1
311.02 K	667.87	1278.7
313.56 K	661.98	1362.7
316.06 K	655.89	1439.2
318.06 K	650.99	1511.1
320.34 K	645.22	1596.5
322.83 K	638.81	1683.8
325.41 K	632.16	1800.8
328.04 K	625.04	1922.5
330.58 K	617.82	2035.8
332.88 K	609.12	2105.8
335.61 K	599.54	2262.5
337.83 K	591.63	2369.9
340.19 K	583.39	2489.5
343.01 K	573.25	2639
